{"source": "patent US20050043315A1", "about": "“Aminopyrimidine compounds, processes for their preparation and pharmaceutical compositions containing them” (priority 2002, published 2005)"}
{"units": {"melting point": "°C"}}
{"smiles": "CC(C)n1nc(-c2cnc(N)nc2-c2ccc(O)cc2)ccc1=O", "note": "(hydrate or solvate) [Example 185, 6-[2-amino-4-(4-hydroxyphenyl)-5-pyrimidinyl]-2-isopropyl-3(2H)-pyridazinone]", "melting point": 246}
{"smiles": "CC(C)n1nc(-c2cnc(N)nc2-c2ccccc2O)ccc1=O", "note": "(hydrate or solvate) [Example 186, 6-[2-Amino-4-(2-hydroxyphenyl)-5-pyrimidinyl]-2-isopropyl-3(2H)-pyridazinone]", "melting point": 241}
{"smiles": "CC(C)n1nc(-c2cnc(N)nc2-c2cccc(O)c2)ccc1=O", "note": "(hydrate or solvate) [Example 187, 6-[2-Amino-4-(3-hydroxyphenyl)-5-pyrimidinyl]-2-isopropyl-3(2H)-pyridazinone]", "melting point": 204}
{"smiles": "Cn1nc(-c2cnc(N)nc2-c2ccc(O)cc2)ccc1=O", "note": "(hydrate or solvate) [Example 223, 6-[2-Amino-4-(4-hydroxyphenyl)-5-pyrimidinyl)-2-methyl-3(2H)-pyridazinone]", "melting point": 250}
{"smiles": "Cn1nc(-c2cnc(N)nc2-c2ccccc2O)ccc1=O", "note": "(hydrate or solvate) [Example 224, 6-[2-Amino-4-(2-hydroxyphenyl)-5-pyrimidinyl]-2-methyl-3(2H)-pyridazinone]", "melting point": 260}
{"smiles": "Cn1nc(-c2cnc(N)nc2-c2cccc(O)c2)ccc1=O", "note": "(hydrate or solvate) [Example 225, 6-[2-Amino-4-(3-hydroxyphenyl)-5-pyrimidinyl]-2-methyl-3(2H)-pyridazinone]", "melting point": 285}
{"smiles": "Cn1nc(-c2cnc(N)nc2-c2ccccc2)ccc1=O", "note": "[Example 3, 6-(2-Amino-4-phenyl-5-pyrimidinyl)-2-methyl-3(2H)-pyridazinone]", "melting point": "254 to 255"}
{"smiles": "CCCn1nc(-c2cnc(N)nc2-c2ccccc2)ccc1=O", "note": "[Example 5, 6-(2-Amino-4-phenyl-5-pyrimidinyl)-2-propyl-3(2H)-pyridazinone]", "melting point": "188 to 189"}
{"smiles": "Nc1ncc(-c2ccc(=O)n(Cc3ccccc3)n2)c(-c2ccccc2)n1", "note": "[Example 6, 6-(2-Amino-4-phenyl-5-pyrimidinyl)-2-benzyl-3(2H)-pyridazinone]", "melting point": "229 to 230"}
{"smiles": "CNc1ncc(-c2ccc(=O)[nH]n2)c(-c2ccccc2)n1", "note": "[Example 8, 6-[2-(Methylamino)-4-phenyl-5-pyrimidinyl]-3(2H)-pyridazinone]", "melting point": "> 255"}
{"smiles": "CN(C)c1ncc(-c2ccc(=O)[nH]n2)c(-c2ccccc2)n1", "note": "[Example 9, 6-[2-(Dimethylamino)-4-phenyl-5-pyrimidinyl]-3(2H)-pyridazinone]", "melting point": "245 to 246"}
{"smiles": "CNc1ncc(-c2ccc(=O)n(C(C)C)n2)c(-c2ccccc2)n1", "note": "[Example 10, 2-Isopropyl-6-[2-(methylamino)-4-phenyl-5-pyrimidinyl]-3(2H)-pyridazinone]", "melting point": "160 to 161"}
{"smiles": "CC(C)n1nc(-c2cnc(N(C)C)nc2-c2ccccc2)ccc1=O", "note": "[Example 11, 6-[2-(Dimethylamino)-4-phenyl-5-pyrimidinyl]-2-isopropyl-3(2H)-pyridazinone]", "melting point": "155 to 156"}
{"smiles": "CC(C)n1nc(-c2cnc(N)nc2-c2ccc(F)cc2)ccc1=O", "note": "[Example 13, 6-[2-amino-4-(4-fluorophenyl)-5-pyrimidinyl]-2-isopropyl-3(2H)-pyridazinone]", "melting point": "238 to 239"}
{"smiles": "CC(C)n1nc(-c2cnc(N)nc2-c2ccccc2Br)ccc1=O", "note": "[Example 15, 6-[2-Amino-4-(2-bromophenyl)-5-pyrimidinyl]-2-isopropyl-3(2H)-pyridazinone]", "melting point": "203 to 205"}
{"smiles": "CC(C)n1nc(-c2cnc(N3CCOCC3)nc2-c2ccccc2)ccc1=O", "note": "[Example 17, 2-isopropyl-6-[2-morpholino-4-phenyl-5-pyrimidinyl]-3(2H)-pyridazinone]", "melting point": "200.5 to 202"}
{"smiles": "CC(C)n1nc(-c2cnc(Nc3ccccc3)nc2-c2ccccc2)ccc1=O", "note": "[Example 19, 6-(2-Anilino-4-phenyl-5-pyrimidinyl)-2-isopropyl-3(2H)-pyridazinone]", "melting point": "200 to 202"}
{"smiles": "CC(C)n1nc(-c2cnc(N)nc2-c2ccccc2F)ccc1=O", "note": "[Example 20, 6-[2-Amino-4-(2-fluorophenyl)-5-pyrimidinyl]-2-isopropyl-3(2H)-pyridazinone]", "melting point": "239 to 240.5"}
{"smiles": "CC(C)n1nc(-c2cnc(N)nc2-c2cccc(F)c2)ccc1=O", "note": "[Example 21, 6-[2-Amino-4-(3-fluorophenyl)-5-pyrimidinyl]-2-isopropyl-3(2H)-pyridazinone]", "melting point": "220 to 221.5"}
{"smiles": "CC(C)n1nc(-c2cnc(N)nc2-c2ccccc2Cl)ccc1=O", "note": "[Example 22, 6-[2-Amino-4-(2-chlorophenyl)-5-pyrimidinyl]-2-isopropyl-3(2H)-pyridazinone]", "melting point": "227 to 228.5"}
{"smiles": "CC(C)n1nc(-c2cnc(N)nc2-c2cccc(Cl)c2)ccc1=O", "note": "[Example 23, 6-[2-Amino-4-(3-chlorophenyl)-5-pyrimidinyl]-2-isopropyl-3(2H)-pyridazinone]", "melting point": "236 to 237"}
{"smiles": "CC(C)n1nc(-c2cnc(N)nc2-c2ccccc2C(F)(F)F)ccc1=O", "note": "[Example 24, 6-{2-Amino-4-[2-(trifluoromethyl)phenyl]-5-pyrimidinyl}-2-isopropyl-3(2H)-pyridazinone]", "melting point": "160 to 161"}
{"smiles": "CC(C)n1nc(-c2cnc(N)nc2-c2cccc(C(F)(F)F)c2)ccc1=O", "note": "[Example 25, 6-{2-Amino-4-[3-(trifluoromethyl)phenyl]-5-pyrimidinyl}-2-isopropyl-3(2H)-pyridazinone]", "melting point": "163.5 to 165"}
{"smiles": "CC(C)n1nc(-c2cnc(N)nc2-c2ccc(C(F)(F)F)cc2)ccc1=O", "note": "[Example 26, 6-{2-Amino-4-[4-(trifluoromethyl)phenyl]-5-pyrimidinyl}-2-isopropyl-3(2H)-pyridazinone]", "melting point": "209 to 210.5"}
{"smiles": "COc1ccc(-c2nc(N)ncc2-c2ccc(=O)[nH]n2)cc1", "note": "[Example 27, 6-[2-amino-4-(4-methoxyphenyl)-5-pyrimidinyl]-3(2H)-pyridazinone]", "melting point": 142}
{"smiles": "Nc1ncc(-c2ccc(=O)[nH]n2)c(-c2cccc(F)c2)n1", "note": "[Example 28, 6-[2-Amino-4-(3-fluorophenyl)-5-pyrimidinyl]-3(2H)-pyridazinone]", "melting point": 249}
{"smiles": "COc1ccc(-c2nc(N)ncc2-c2ccc(=O)[nH]n2)cc1F", "note": "[Example 29, 6-[2-Amino-4-(3-fluoro-4-methoxyphenyl)-5-pyrimidinyl]-3(2H)-pyridazinone]", "melting point": 250}
{"smiles": "Nc1ncc(-c2ccc(=O)[nH]n2)c(-c2cccnc2)n1", "note": "[Example 31, 6-[2-Amino-4-(3-pyridinyl)-5-pyrimidinyl]-3(2H)-pyridazinone]", "melting point": 256}
{"smiles": "Nc1ncc(-c2ccc(=O)[nH]n2)c(-c2ccco2)n1", "note": "[Example 34, 6-[2-Amino-4-(2-furyl)-5-pyrimidinyl]-3(2H)-pyridazinone]", "melting point": "262 to 268"}
{"smiles": "Cc1ccc(-c2nc(N)ncc2-c2ccc(=O)[nH]n2)cc1", "note": "[Example 35, 6-[2-Amino-4-(4-methylphenyl)-5-pyrimidinyl]-3(2H)-pyridazinone]", "melting point": 249}
{"smiles": "COc1ccc(-c2nc(N)ncc2-c2ccc(=O)[nH]n2)cc1OC", "note": "[Example 37, 6-[2-Amino-4-(3,4-dimethoxyphenyl)-5-pyrimidinyl]-3(2H)-pyridazinone]", "melting point": 225}
{"smiles": "Nc1ncc(-c2ccc(=O)[nH]n2)c(-c2ccc(Cl)c(Cl)c2)n1", "note": "[Example 38, 6-[2-Amino-4-(3,4-dichlorophenyl)-5-pyrimidinyl]-3(2H)-pyridazinone]", "melting point": 300}
{"smiles": "Cc1ccccc1-c1nc(N)ncc1-c1ccc(=O)[nH]n1", "note": "[Example 39, 6-[2-Amino-4-(2-methylphenyl)-5-pyrimidinyl]-3(2H)-pyridazinone]", "melting point": 313}
{"smiles": "COc1ccccc1-c1nc(N)ncc1-c1ccc(=O)[nH]n1", "note": "[Example 40, 6-[2-Amino-4-(2-methoxyphenyl)-5-pyrimidinyl]-3(2H)-pyridazinone]", "melting point": 273}
{"smiles": "Nc1ncc(-c2ccc(=O)[nH]n2)c(-c2cccs2)n1", "note": "[Example 41, 6-[2-Amino-4-(2-thienyl)-5-pyrimidinyl]-3(2H)-pyridazinone]", "melting point": 265}
{"smiles": "Cc1cccc(-c2nc(N)ncc2-c2ccc(=O)[nH]n2)c1", "note": "[Example 42, 6-[2-Amino-4-(3-methylphenyl)-5-pyrimidinyl]-3(2H)-pyridazinone]", "melting point": 216}
{"smiles": "COc1cccc(-c2nc(N)ncc2-c2ccc(=O)[nH]n2)c1", "note": "[Example 43, 6-[2-Amino-4-(3-methoxyphenyl)-5-pyrimidinyl)-3(2H)-pyridazinone]", "melting point": 134}
{"smiles": "COc1ccc(-c2nc(N)ncc2-c2ccc(=O)n(C(C)C)n2)cc1", "note": "[Example 44, 6-[2-amino-4-(4-methoxyphenyl)-5-pyrimidinyl]-2-isopropyl-3(2H)-pyridazinone]", "melting point": 216.5}
{"smiles": "CC(C)n1nc(-c2cnc(N)nc2-c2ccc(Cl)cc2)ccc1=O", "note": "[Example 45, 6-[2-Amino-4-(4-chlorophenyl)-5-pyrimidinyl]-2-isopropyl-3(2H)-pyridazinone]", "melting point": 195}
{"smiles": "COc1ccc(-c2nc(N)ncc2-c2ccc(=O)n(C(C)C)n2)cc1F", "note": "[Example 46, 6-[2-Amino-4-(3-fluoro-4-methoxyphenyl)-5-pyrimidinyl]-2-isopropyl-3(2H)-pyridazinone]", "melting point": 174}
{"smiles": "Cc1ccc(-c2nc(N)ncc2-c2ccc(=O)n(C(C)C)n2)cc1", "note": "[Example 48, 6-[2-Amino-4-(4-methylphenyl)-5-pyrimidinyl]-2-isopropyl-3(2H)-pyridazinone]", "melting point": 224}
{"smiles": "CC(C)n1nc(-c2cnc(N)nc2-c2ccc(F)c(F)c2)ccc1=O", "note": "[Example 49, 6-[2-Amino-4-(3,4-difluorophenyl)-5-pyrimidinyl]-2-isopropyl-3(2H)-pyridazinone]", "melting point": 208}
{"smiles": "CC(C)n1nc(-c2cnc(N)nc2-c2ccc(Cl)c(Cl)c2)ccc1=O", "note": "[Example 50, 6-[2-Amino-4-(3,4-dichlorophenyl)-5-pyrimidinyl]-2-isopropyl-3(2H)-pyridazinone]", "melting point": 176}
{"smiles": "COc1ccc(-c2nc(N)ncc2-c2ccc(=O)n(C(C)C)n2)cc1OC", "note": "[Example 51, 6-[2-Amino-4-(3,4-dimethoxyphenyl)-5-pyrimidinyl]-2-isopropyl-3(2H)-pyridazinone]", "melting point": 167}
